Measurements as given in PubChem BioAssay (NCI).
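All cell lines were grown in 96-well plates and treated with compound for 48 hours. GI50 is the concentration that inhibits growth by half. TGI marks complete inhibition of growth.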

Legend:
Assay in all cases: DTP human tumour cell line panel, 48 h
OVCAR-3 ovarian = system: OVCAR-3 ovarian
HCT-15 colon = system: HCT-15 colon
SK-MEL-28 melanoma = system: SK-MEL-28 melanoma
786-0 renal = system: 786-0 renal
ACHN renal = system: ACHN renal
NCI-H460 lung = system: NCI-H460 lung
SN12C renal = system: SN12C renal
SF-295 CNS = system: SF-295 CNS

Row | Structure (SMILES) | GI50 (OVCAR-3 ovarian) [µM] | TGI (OVCAR-3 ovarian) [µM] | GI50 (HCT-15 colon) [µM] | TGI (HCT-15 colon) [µM] | GI50 (SK-MEL-28 melanoma) [µM] | TGI (SK-MEL-28 melanoma) [µM] | GI50 (786-0 renal) [µM] | TGI (786-0 renal) [µM] | GI50 (ACHN renal) [µM] | TGI (ACHN renal) [µM] | GI50 (NCI-H460 lung) [µM] | TGI (NCI-H460 lung) [µM] | GI50 (SN12C renal) [µM] | TGI (SN12C renal) [µM] | GI50 (SF-295 CNS) [µM] | TGI (SF-295 CNS) [µM]
1 | NC1CCCCC1N.O=C1C=C/C(=C(/c2ccc(O)c(Br)c2)c2ccccc2S(=O)(=O)[O-])C=C1Br.O=C1C=C/C(=C(/c2ccc(O)c(Br)c2)c2ccccc2S(=O)(=O)[O-])C=C1Br.[Pt+4] | 13.8 | > 100 | 3.85 | > 100 | 2.35 | 38.2 | 2.42 | > 100 | 1.42 | > 100 | 1.54 | > 100 | 3.59 | > 100 | 4.99 | > 100
2 | Cc1ccc(S(=O)(=O)N2CCN(C=S)CC2)cc1 | – | > 100 | – | > 100 | – | > 100 | – | > 100 | – | > 100 | – | > 100 | – | > 100 | – | –
3 | C=CC(=O)NC(N)=NC#N | – | 310 | – | 258 | – | 261 | – | 300 | – | 245 | – | 360 | – | 293 | – | 843
4 | O=C(CCc1ccccc1)NS(=O)(=O)c1ccccc1 | – | > 100 | – | – | – | > 100 | – | > 100 | – | > 100 | – | > 100 | – | > 100 | – | > 100
5 | CSc1nc2nn(Cc3ccccc3)cc2c(=O)[nH]1 | – | > 100 | – | > 100 | – | > 100 | – | > 100 | – | > 100 | – | > 100 | – | > 100 | – | > 100
6 | O=C(OCCCl)C1OC(n2cc(F)c(=O)[nH]c2=O)CC1O (stereo not given) | – | > 100 | – | > 100 | – | > 100 | – | > 100 | – | > 100 | – | > 100 | – | > 100 | – | > 100
7 | CC1=NN(C(=O)Nc2ccc(Cl)cc2)C(=O)C2CCC(=O)N12 (stereo not given) | – | > 100 | – | 44.2 | – | > 100 | – | > 100 | – | > 100 | – | > 100 | – | > 100 | – | > 100
8 | O=C(/C=C/c1ccccc1O)c1ccc([N+](=O)[O-])cc1 | – | 25.5 | – | 46.8 | – | 94.4 | – | 32.6 | – | 26.4 | – | 50.5 | – | 30.8 | – | 56.5
9 | c1ccncc1 | – | > 100 | – | > 100 | – | > 100 | – | > 100 | – | > 100 | – | > 100 | – | > 100 | – | > 100
10 | O=C(Cc1nc2ccccc2o1)C(=O)Nc1cccc(Cl)c1 | – | > 100 | – | > 100 | – | > 100 | – | > 100 | – | > 100 | – | > 100 | – | > 100 | – | > 100
11 | Cc1cc(N2CCCCC2)nc(NC2CCCC(Nc3ccnc4cc(Cl)ccc34)C2)n1 (stereo not given) | 1.63 | 3.42 | 0.825 | 2.17 | 1.8 | 3.39 | 1.27 | 2.59 | 1.54 | 2.98 | 1.39 | 2.86 | – | – | 1.52 | 2.92
12 | CC(=O)O[C@H]1CCN2C(=O)C=CC(OCc3ccccc3)C12 (stereo not given in full) | – | > 100 | – | > 100 | – | > 100 | – | > 100 | – | > 100 | – | > 100 | – | > 100 | – | > 100
13 | OCC[N+]12CCCN1CCC2 | – | > 100 | – | > 100 | – | > 100 | – | > 100 | – | > 100 | – | > 100 | – | > 100 | – | > 100
14 | Cc1ccc(NC(=O)CC/C(CC(=O)C(C)(C)C)=N\NC(=O)C[n+]2ccccc2)cc1C | – | > 100 | – | > 100 | – | > 100 | – | > 100 | – | > 100 | – | > 100 | – | > 100 | – | > 100
15 | CCOc1ccc(/C=C/c2cc(OC)c(OC)c(OC)c2)cc1 | – | 1.88 | – | > 22.1 | – | > 100 | – | 37.4 | – | > 64.8 | – | > 29.6 | – | > 28 | – | 16.9
16 | CN(C)CCC(CCN(C)C)=NO | – | > 100 | – | > 100 | – | > 100 | – | > 100 | – | > 100 | – | > 100 | – | > 100 | – | > 100
17 | N#CCC(=O)N/N=C1/C(=O)N(c2cc(Cl)ccc2Cl)C(=O)C(=O)C1c1nc2ccccc2s1 (stereo not given) | – | > 100 | – | > 100 | – | > 100 | – | > 100 | – | > 100 | – | > 100 | – | > 100 | – | > 100
18 | O=C(N/C(=C\c1cccc([N+](=O)[O-])c1)c1nc2ccccc2[nH]1)c1ccccc1 | – | > 100 | – | > 100 | – | 68.9 | – | > 100 | – | > 100 | – | > 100 | – | > 100 | – | –
